# Data taken from patent US12486300B2, “Mithramycin oxime derivatives having increased selectivity and anti-cancer activity” (University of Kentucky Research Foundation, priority 2018, dated 2025).
# Legend:
# [1] = test system: TC32 Ewing sarcoma cells, expressing EWS-FLI1; test: Growth inhibition assay, TC32 cells; type: cell-based; conditions: for TC32 vs. PC3 / IC50: Table 1C; for TC32 vs. PC3: cellular selectivity; for IC50: read-out: IC50 TC-32; for EC50: Table 1D, read-out: TC-32 Mean EC50; for PC:TC32 (cellular selectivity): ratio of GI50 PC3 to TC32
# Protocol: (§1) Growth inhibition assay to assess cytotoxicity in ETS vs non-ETS expressing cells. Cells were seeded in clear 96-well plates (VWR, Radnor, PA). Seeding densities were optimized for each cell line to support 5 days of linear growth. Following a 24 hours attachment period, cells in duplicate wells were treated with half-log increments of respective compounds (0 nM and 0.3 nM-10 μM). Working stocks were prepared from an initial 10 mM drug stock diluted in either 100% ethanol or dimethyl sulfoxide (DMSO). All wells contained a final concentration of 0.1% (v/v) respective organic solvent. Immediately following treatment, cell viability was measured for vehicle control (Day 0) wells. Cell viability was measured in the remaining wells after 72 hours of incubation with compound or vehicle control (Day 3).
# (§2) Percent viability, relative to the initial cell seeding concentration, was calculated by ((TreatmentDay3−Vehicle ControlDay0)/(Vehicle ControlDay3−Vehicle ControlDay0))×100. Percent cell viability was plotted as a function of compound concentration (Log [M]) and the data were fit using a 3-parameter non-linear model with fixed Hill slope constant and 4-parameter non-linear model with variable Hill slope constant. The model with the best curve fit was used to estimate the GI50 in GraphPad Prism 7.0 software (GraphPad Software, La Jolla, CA). The 3-parameter equation used was Y=Bottom+(Top−Bottom)/(1+10[…]((X−Log[IC50]))). The 4-parameter equation used was Y=Bottom+(Top−Bottom)/(1+10[…]((Log[IC50]−X)*Hillslope)). Top and Bottom are plateaus in the units of the Y-axis (response). IC50 is the response (Y-axis) halfway between Top and Bottom plateaus.
# (§3) All compounds were tested at least once in multi-well replicates and each experiment included one a control compound (i.e., MTM) to ensure the stable response of the cell lines. The selectivity index was estimated by determining the ratio of GI50 estimates between ETS fusion negative and ETS fusion positive cell lines.
# [2] = test system: PC3 Prostate Cancer Cells; test: Growth inhibition assay, PC3 cells; type: cell-based; conditions: for IC50: Table 1C; for EC50: Table 1D
# Protocol: as §1, §2, §3
SMILES,PC:TC32 (cellular selectivity) [1],also measured
COC(C(=NOCC(=O)N(C)C(Cc1cn(C)c2ccccc12)C(=O)N1CCOCC1)C(O)C(C)O)C1Cc2cc3cc(OC4CC(OC5CC(O)C(O)C(C)O5)C(O)C(C)O4)c(C)c(O)c3c(O)c2C(=O)C1OC1CC(OC2CC(OC3CC(C)(O)C(O)C(C)O3)C(O)C(C)O2)C(O)C(C)O1 (stereo not drawn) [AK-B6],,TC32 vs. PC3 [1]: >3×; IC50 [1]: 0.032 to 0.12 µM; EC50 [1]: 0.0107 µM; IC50 [2]: 0.15 to 0.37 µM; EC50 [2]: 0.0523 µM
COC(C(=NOCC(=O)NC(Cc1cn(C)c2ccccc12)C(=O)N1CCOCC1)C(O)C(C)O)C1Cc2cc3cc(OC4CC(OC5CC(O)C(O)C(C)O5)C(O)C(C)O4)c(C)c(O)c3c(O)c2C(=O)C1OC1CC(OC2CC(OC3CC(C)(O)C(O)C(C)O3)C(O)C(C)O2)C(O)C(C)O1 (stereo not drawn) [AK-B11],,TC32 vs. PC3 [1]: >8×; IC50 [1]: 0.147 to 0.3 µM; EC50 [1]: 0.0498 µM; IC50 [2]: 1.6 to 2.5 µM; EC50 [2]: 0.666 µM
COC(=O)C(C)NC(=O)C(Cc1c[nH]c2ccccc12)NC(=O)CON=C(C(O)C(C)O)C(OC)C1Cc2cc3cc(OC4CC(OC5CC(O)C(O)C(C)O5)C(O)C(C)O4)c(C)c(O)c3c(O)c2C(=O)C1OC1CC(OC2CC(OC3CC(C)(O)C(O)C(C)O3)C(O)C(C)O2)C(O)C(C)O1 (stereo not drawn) [MTM (52)],6.6,
CNC(=O)C(Cc1c[nH]c2ccccc12)NC(=O)C(Cc1c[nH]c2ccccc12)NC(=O)CON=C(C(O)C(C)O)C(OC)C1Cc2cc3cc(OC4CC(OC5CC(O)C(O)C(C)O5)C(O)C(C)O4)c(C)c(O)c3c(O)c2C(=O)C1OC1CC(OC2CC(OC3CC(C)(O)C(O)C(C)O3)C(O)C(C)O2)C(O)C(C)O1 (stereo not drawn) [MTM (53)],5.0,
COC(C(=NOCC(=O)NC(Cc1c[nH]c2ccccc12)C(=O)NC(C)CO)C(O)C(C)O)C1Cc2cc3cc(OC4CC(OC5CC(O)C(O)C(C)O5)C(O)C(C)O4)c(C)c(O)c3c(O)c2C(=O)C1OC1CC(OC2CC(OC3CC(C)(O)C(O)C(C)O3)C(O)C(C)O2)C(O)C(C)O1 (stereo not drawn) [MTM (55)],2.7,
COC(C(=NOCC(=O)NC(Cc1c[nH]c2ccccc12)C(=O)NCc1cnccn1)C(O)C(C)O)C1Cc2cc3cc(OC4CC(OC5CC(O)C(O)C(C)O5)C(O)C(C)O4)c(C)c(O)c3c(O)c2C(=O)C1OC1CC(OC2CC(OC3CC(C)(O)C(O)C(C)O3)C(O)C(C)O2)C(O)C(C)O1 (stereo not drawn) [MTM (56)],1.9,
COC(C(=NOCC(=O)NC(Cc1c[nH]c2ccccc12)C(=O)NC(Cc1c[nH]c2ccccc12)c1nc(C)no1)C(O)C(C)O)C1Cc2cc3cc(OC4CC(OC5CC(O)C(O)C(C)O5)C(O)C(C)O4)c(C)c(O)c3c(O)c2C(=O)C1OC1CC(OC2CC(OC3CC(C)(O)C(O)C(C)O3)C(O)C(C)O2)C(O)C(C)O1 (stereo not drawn) [MTM (58)],2.4,
COC(C(=NOCC(=O)Nc1ccc2[nH]ccc2c1)C(O)C(C)O)C1Cc2cc3cc(OC4CC(OC5CC(O)C(O)C(C)O5)C(O)C(C)O4)c(C)c(O)c3c(O)c2C(=O)C1OC1CC(OC2CC(OC3CC(C)(O)C(O)C(C)O3)C(O)C(C)O2)C(O)C(C)O1 (stereo not drawn) [MTM (60)],10,
COC(=O)c1ccc(NC(=O)CON=C(C(O)C(C)O)C(OC)C2Cc3cc4cc(OC5CC(OC6CC(O)C(O)C(C)O6)C(O)C(C)O5)c(C)c(O)c4c(O)c3C(=O)C2OC2CC(OC3CC(OC4CC(C)(O)C(O)C(C)O4)C(O)C(C)O3)C(O)C(C)O2)c(OCC(C)C)c1 (stereo not drawn) [MTM (61)],5.7,
COC(C(=NOCCNC(=O)c1ccc([N+](=O)[O-])c(OCC(C)C)c1)C(O)C(C)O)C1Cc2cc3cc(OC4CC(OC5CC(O)C(O)C(C)O5)C(O)C(C)O4)c(C)c(O)c3c(O)c2C(=O)C1OC1CC(OC2CC(OC3CC(C)(O)C(O)C(C)O3)C(O)C(C)O2)C(O)C(C)O1 (stereo not drawn) [MTM (63)],13.3,
COC(C(=NOCC(=O)NCc1ccc2cc[nH]c2c1)C(O)C(C)O)C1Cc2cc3cc(OC4CC(OC5CC(O)C(O)C(C)O5)C(O)C(C)O4)c(C)c(O)c3c(O)c2C(=O)C1OC1CC(OC2CC(OC3CC(C)(O)C(O)C(C)O3)C(O)C(C)O2)C(O)C(C)O1 (stereo not drawn) [MTM (64)],12.3,
COC(C(=NOCC(=O)NCc1ccc2[nH]ccc2c1)C(O)C(C)O)C1Cc2cc3cc(OC4CC(OC5CC(O)C(O)C(C)O5)C(O)C(C)O4)c(C)c(O)c3c(O)c2C(=O)C1OC1CC(OC2CC(OC3CC(C)(O)C(O)C(C)O3)C(O)C(C)O2)C(O)C(C)O1 (stereo not drawn) [MTM (65)],20.1,
COC(C(=NOCC(=O)Nc1ccc2cc[nH]c2c1)C(O)C(C)O)C1Cc2cc3cc(OC4CC(OC5CC(O)C(O)C(C)O5)C(O)C(C)O4)c(C)c(O)c3c(O)c2C(=O)C1OC1CC(OC2CC(OC3CC(C)(O)C(O)C(C)O3)C(O)C(C)O2)C(O)C(C)O1 (stereo not drawn) [MTM (66)],4.2,
COC(C(=NOCC(=O)Nc1ccc2c(c1)CC(=O)N2)C(O)C(C)O)C1Cc2cc3cc(OC4CC(OC5CC(O)C(O)C(C)O5)C(O)C(C)O4)c(C)c(O)c3c(O)c2C(=O)C1OC1CC(OC2CC(OC3CC(C)(O)C(O)C(C)O3)C(O)C(C)O2)C(O)C(C)O1 (stereo not drawn) [MTM (67)],3.8,
COC(C(=NOCC(=O)Nc1cccc2[nH]ccc12)C(O)C(C)O)C1Cc2cc3cc(OC4CC(OC5CC(O)C(O)C(C)O5)C(O)C(C)O4)c(C)c(O)c3c(O)c2C(=O)C1OC1CC(OC2CC(OC3CC(C)(O)C(O)C(C)O3)C(O)C(C)O2)C(O)C(C)O1 (stereo not drawn) [MTM (68)],4.5,
COC(C(=NOCC(=O)Nc1ccc2scnc2c1)C(O)C(C)O)C1Cc2cc3cc(OC4CC(OC5CC(O)C(O)C(C)O5)C(O)C(C)O4)c(C)c(O)c3c(O)c2C(=O)C1OC1CC(OC2CC(OC3CC(C)(O)C(O)C(C)O3)C(O)C(C)O2)C(O)C(C)O1 (stereo not drawn) [MTM (69)],11.4,
COC(C(=NOCC(=O)Nc1ccc2ncsc2c1)C(O)C(C)O)C1Cc2cc3cc(OC4CC(OC5CC(O)C(O)C(C)O5)C(O)C(C)O4)c(C)c(O)c3c(O)c2C(=O)C1OC1CC(OC2CC(OC3CC(C)(O)C(O)C(C)O3)C(O)C(C)O2)C(O)C(C)O1 (stereo not drawn) [MTM (70)],7.2,
COC(C(=NOCC(=O)Nc1ccc2[nH]cnc2c1)C(O)C(C)O)C1Cc2cc3cc(OC4CC(OC5CC(O)C(O)C(C)O5)C(O)C(C)O4)c(C)c(O)c3c(O)c2C(=O)C1OC1CC(OC2CC(OC3CC(C)(O)C(O)C(C)O3)C(O)C(C)O2)C(O)C(C)O1 (stereo not drawn) [MTM (71)],3.2,
COC(C(=NOCC(=O)Nc1ccc2[nH]c(C)cc2c1)C(O)C(C)O)C1Cc2cc3cc(OC4CC(OC5CC(O)C(O)C(C)O5)C(O)C(C)O4)c(C)c(O)c3c(O)c2C(=O)C1OC1CC(OC2CC(OC3CC(C)(O)C(O)C(C)O3)C(O)C(C)O2)C(O)C(C)O1 (stereo not drawn) [MTM (72)],20.9,
COC(C(=NOCC(=O)Nc1ccc2ncccc2c1)C(O)C(C)O)C1Cc2cc3cc(OC4CC(OC5CC(O)C(O)C(C)O5)C(O)C(C)O4)c(C)c(O)c3c(O)c2C(=O)C1OC1CC(OC2CC(OC3CC(C)(O)C(O)C(C)O3)C(O)C(C)O2)C(O)C(C)O1 (stereo not drawn) [MTM (74)],66.6,
COC(C(=NOCC(=O)Nc1ccc2cnccc2c1)C(O)C(C)O)C1Cc2cc3cc(OC4CC(OC5CC(O)C(O)C(C)O5)C(O)C(C)O4)c(C)c(O)c3c(O)c2C(=O)C1OC1CC(OC2CC(OC3CC(C)(O)C(O)C(C)O3)C(O)C(C)O2)C(O)C(C)O1 (stereo not drawn) [MTM (75)],118,
COC(C(=NOCC(=O)Nc1cccc2cc[nH]c12)C(O)C(C)O)C1Cc2cc3cc(OC4CC(OC5CC(O)C(O)C(C)O5)C(O)C(C)O4)c(C)c(O)c3c(O)c2C(=O)C1OC1CC(OC2CC(OC3CC(C)(O)C(O)C(C)O3)C(O)C(C)O2)C(O)C(C)O1 (stereo not drawn) [MTMox (73)],5.9,
